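Cultured in 96-well plates, cells were exposed to test compound for 48 hours across five concentrations. GI50: concentration for 50% inhibition of growth.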 The source made the active and inactive calls. No stated cut-off is given here; in the data, active = GI50 up to about 1.1 µM and inactive = higher.
How the values were obtained:
Assay in all cases: inhibition of tumour cell growth, NCI panel, 48 h
786-0 = system: 786-0
SK-OV-3 = system: SK-OV-3
SW-620 = system: SW-620
SNB-19 = system: SNB-19
A498 = system: A498
SF-295 = system: SF-295
NCI-H23 = system: NCI-H23
HT-29 = system: HT-29
MDA-N = system: MDA-N
UACC-62 = system: UACC-62
UACC-257 = system: UACC-257
HCT-116 = system: HCT-116
KM12 = system: KM12
HCT-15 = system: HCT-15
U-251 = system: U-251
CCRF-CEM = system: CCRF-CEM
MOLT-4 = system: MOLT-4
MDA-MB-231 = system: MDA-MB-231
MCF7 = system: MCF7

| SMILES | GI50 (786-0) | GI50 (SK-OV-3) | GI50 (SW-620) | GI50 (SNB-19) | GI50 (A498) | GI50 (SF-295) | GI50 (NCI-H23) | GI50 (HT-29) | GI50 (MDA-N) | GI50 (UACC-62) | GI50 (UACC-257) | GI50 (HCT-116) | GI50 (KM12) | GI50 (HCT-15) | GI50 (U-251) | GI50 (CCRF-CEM) | GI50 (MOLT-4) | GI50 (MDA-MB-231) | GI50 (MCF7) |
| --- | --- | --- | --- | --- | --- | --- | --- | --- | --- | --- | --- | --- | --- | --- | --- | --- | --- | --- | --- |
| COC(C/C(=C/CO[Si](C(C)C)(C(C)C)C(C)C)C(=O)N(COCC[Si](C)(C)C)c1ccccc1I)OC | 31.4 µM (inactive) | > 100 µM (inactive) | 33.5 µM (inactive) | 26.1 µM (inactive) | > 100 µM (inactive) | 4.58 µM (inactive) | 17.3 µM (inactive) | 60.3 µM (inactive) | 37.4 µM (inactive) | 15.6 µM (inactive) | 20 µM (inactive) | 13.2 µM (inactive) | 31.8 µM (inactive) | 41.1 µM | 22.8 µM (inactive) | 22.7 µM (inactive) | 16.2 µM (inactive) | > 100 µM (inactive) |  |
| Cc1cccc2c(=O)c3cccc([C@@H](C)C(=O)O)c3oc12 | > 100 µM (inactive) | > 100 µM (inactive) | > 100 µM (inactive) | > 100 µM (inactive) | > 100 µM (inactive) | > 100 µM (inactive) | > 100 µM (inactive) | > 100 µM (inactive) | > 100 µM (inactive) | > 10 µM (inactive) | > 100 µM (inactive) | > 100 µM (inactive) | > 100 µM (inactive) | > 100 µM | > 100 µM (inactive) | > 100 µM (inactive) | > 100 µM (inactive) | > 100 µM (inactive) |  |
| O.O=C([O-])c1ccccc1Nc1ccccc1C(=O)[O-].[Zn+2] | 24.1 µM (inactive) | 20.4 µM (inactive) | 23.6 µM (inactive) | 17.4 µM (inactive) | 19.2 µM (inactive) | 17.4 µM (inactive) | 18.2 µM (inactive) | > 70.6 µM (inactive) |  | 19.7 µM (inactive) | 14.3 µM (inactive) | 38.4 µM (inactive) | > 100 µM (inactive) | > 60 µM | 18.7 µM (inactive) | 24.1 µM (inactive) | 30.5 µM (inactive) |  |  |
| Cn1cc(NC(=O)c2cc(NC(=O)CCCCCCC(=O)Nc3cc(C(=O)Nc4cc(C(=O)NCCC(=N)N)n(C)c4)n(C)c3)cn2C)cc1C(=O)NCCC(=N)N | 12.9 µM (inactive) | > 100 µM (inactive) | 29.7 µM (inactive) | 29.2 µM (inactive) | 1.93 µM (inactive) | 25.9 µM (inactive) | 3.91 µM (inactive) | 73.6 µM (inactive) |  | 7.6 µM (inactive) | 2.2 µM (inactive) | 8.53 µM (inactive) | 2.92 µM (inactive) | 32 µM | 17.3 µM (inactive) | > 100 µM (inactive) |  |  |  |
| Cc1ccc(C(=O)O)cc1NC(=O)c1cc(/C=C/c2ccccc2)[nH]c(=S)n1 | > 64.3 µM (inactive) | > 100 µM (inactive) | > 28.9 µM (inactive) | > 100 µM (inactive) | > 100 µM (inactive) | > 100 µM (inactive) | > 100 µM (inactive) | > 64.4 µM (inactive) |  | > 100 µM (inactive) | > 100 µM (inactive) | > 37.8 µM (inactive) | > 100 µM (inactive) | > 45 µM | > 100 µM (inactive) | > 64.7 µM (inactive) | > 100 µM (inactive) |  |  |
| COc1cc([C@@H]2c3cc4c(cc3[C@@H](NC(=O)c3ccccc3)C3COC(=O)[C@@H]32)OCO4)cc(OC)c1O (some centres undefined) | 4.26 µM (inactive) | 6.62 µM (inactive) | 10.3 µM (inactive) | 19.4 µM (inactive) | 6.1 µM (inactive) | 3.51 µM (inactive) | 2.77 µM (inactive) | 3.18 µM (inactive) |  | 0.568 µM (active) | 2.99 µM (inactive) | 5.42 µM (inactive) | 7.28 µM (inactive) | 9.84 µM | 1.32 µM (inactive) | 1.57 µM (inactive) | 0.491 µM (active) |  |  |
| N#CCCC1(CCC#N)CCCCCCCCC(CCC#N)(CCC#N)C(=O)C1=O | > 100 µM (inactive) | > 100 µM (inactive) | > 100 µM (inactive) | > 100 µM (inactive) |  | > 100 µM (inactive) | > 100 µM (inactive) | > 100 µM (inactive) | > 100 µM (inactive) | > 100 µM (inactive) | 55.6 µM (inactive) | > 100 µM (inactive) | > 100 µM (inactive) | > 100 µM | > 100 µM (inactive) |  |  |  | > 100 µM (inactive) |
| COc1cc2c(cc1OCCCOc1cc(-c3ccc(F)cc3)nc(C)n1)N=C[C@@H]1CCCN1C2=O | 16.7 µM (inactive) | 25.6 µM (inactive) | 22.9 µM (inactive) | 20.1 µM (inactive) | 12.7 µM (inactive) | 16.4 µM (inactive) | 15.1 µM (inactive) | 23.1 µM (inactive) |  | 14.5 µM (inactive) | 17.3 µM (inactive) | 16.9 µM (inactive) | 19.3 µM (inactive) | 12.6 µM | 14.8 µM (inactive) | 15.8 µM (inactive) | 14.3 µM (inactive) | 13.8 µM (inactive) | 29.4 µM (inactive) |
| CCN(CC)CCOC(c1ccccc1)c1ccccc1.CCOC(=O)Nc1ccc(S(=O)(=O)NCCCl)cc1.CCOC(=O)Nc1ccc(S(=O)(=O)NCCCl)cc1.Nc1ccc(C(=O)O)c(O)c1 | > 100 µM (inactive) | > 100 µM (inactive) | > 100 µM (inactive) | > 100 µM (inactive) | > 100 µM (inactive) | > 100 µM (inactive) | > 100 µM (inactive) | > 100 µM (inactive) |  | > 100 µM (inactive) | > 100 µM (inactive) | > 100 µM (inactive) | > 100 µM (inactive) | > 100 µM | > 100 µM (inactive) | > 100 µM (inactive) | > 100 µM (inactive) |  |  |
| CS(=O)(=O)ON1C(=O)c2ccc(N)cc2C1=O | > 100 µM (inactive) | > 100 µM (inactive) | 52.1 µM (inactive) | > 100 µM (inactive) | > 100 µM (inactive) | > 100 µM (inactive) | > 100 µM (inactive) | > 79.3 µM (inactive) |  | > 64 µM (inactive) | > 31.6 µM (inactive) | > 79.8 µM (inactive) | > 100 µM (inactive) | 71.4 µM | > 100 µM (inactive) | 16 µM (inactive) | 21.4 µM (inactive) |  |  |
| COc1cc2nncc(Sc3cnnc4ccccc34)c2cc1OC | 27.4 µM (inactive) | 14.7 µM (inactive) | 16.6 µM (inactive) | 19.8 µM (inactive) | 26.7 µM (inactive) | 26.9 µM (inactive) | > 10 µM (inactive) | 21.6 µM (inactive) |  | 7.52 µM (inactive) | 23.1 µM (inactive) |  | 18.9 µM (inactive) | 24.7 µM | 25.5 µM (inactive) | 17.5 µM (inactive) | 22.2 µM (inactive) |  |  |
| CC1=NN(C(=O)c2ccc(Cl)cc2)C(=O)/C1=C/c1cccc(O)c1 | > 100 µM (inactive) | > 100 µM (inactive) | > 100 µM (inactive) | > 100 µM (inactive) | > 100 µM (inactive) | > 100 µM (inactive) | > 100 µM (inactive) | > 100 µM (inactive) |  | > 100 µM (inactive) | > 100 µM (inactive) | > 100 µM (inactive) | > 100 µM (inactive) | > 100 µM | > 100 µM (inactive) | > 100 µM (inactive) | > 100 µM (inactive) |  |  |
| C/C(=N\[N+](C)(C)C)C(c1ccccc1)C1(c2ccccc2)C(c2ccccc2)=C1c1ccccc1 (centres undefined) | > 100 µM (inactive) | > 100 µM (inactive) | > 100 µM (inactive) | > 100 µM (inactive) | > 100 µM (inactive) | 41.1 µM (inactive) | > 100 µM (inactive) | > 100 µM (inactive) |  | > 100 µM (inactive) | > 100 µM (inactive) | > 100 µM (inactive) | > 100 µM (inactive) | 36.9 µM | 66.1 µM (inactive) | > 100 µM (inactive) | > 100 µM (inactive) |  |  |
| C(=N/Nc1ccc(-c2nc3ccccc3[nH]2)cc1)/c1c(-c2ccccc2)[nH]c2ccccc12 | 0.465 µM (active) | 0.32 µM (active) | 0.317 µM (active) |  | 0.516 µM (active) | 0.294 µM (active) | 0.973 µM (active) | 0.222 µM (active) | 0.0303 µM (active) |  | 0.678 µM (active) | 0.424 µM (active) | 0.4 µM (active) | 0.409 µM | 0.322 µM (active) | 0.443 µM (active) | 0.658 µM (active) | 0.475 µM (active) | 0.361 µM (active) |
| N#CC(c1cc2c(cc1Br)OCO2)N1CCOCC1 (centres undefined) | 36.4 µM (inactive) | 73.3 µM (inactive) | 9.04 µM (inactive) | 61.9 µM (inactive) |  | 53 µM (inactive) | 98.2 µM (inactive) | 42.5 µM (inactive) | 18.2 µM (inactive) | 21.1 µM (inactive) | > 100 µM (inactive) | 6.5 µM (inactive) | 67.6 µM (inactive) |  |  | 7.26 µM (inactive) | 27.7 µM (inactive) | 43.7 µM (inactive) | 42.3 µM (inactive) |
| c1ccc2c3c([nH]c2c1)[C@H]1C2CCCCN2CN1CC3 (some centres undefined) | > 100 µM (inactive) | > 100 µM (inactive) | > 100 µM (inactive) | > 100 µM (inactive) | > 100 µM (inactive) | > 100 µM (inactive) | > 100 µM (inactive) | 81.7 µM (inactive) |  | 51.8 µM (inactive) | > 100 µM (inactive) | > 100 µM (inactive) |  | > 100 µM | > 100 µM (inactive) | > 100 µM (inactive) | > 100 µM (inactive) |  |  |
| COc1ccc(-c2cc(C(=O)Nc3ccc(C)c(C)c3)nc(NC#N)n2)cc1 | > 100 µM (inactive) | > 100 µM (inactive) | > 100 µM (inactive) | > 100 µM (inactive) | > 100 µM (inactive) |  | > 100 µM (inactive) | > 100 µM (inactive) |  | > 100 µM (inactive) | > 100 µM (inactive) | > 100 µM (inactive) | > 100 µM (inactive) | > 100 µM | > 100 µM (inactive) | > 100 µM (inactive) | > 100 µM (inactive) |  |  |
